These results are taken from ChEMBL document CHEMBL1641454, “6-Benzylamino 4-oxo-1,4-dihydro-1,8-naphthyridines and 4-oxo-1,4-dihydroquinolines as HIV integrase inhibitors” (Bioorg Med Chem Lett, 2011).

The nature of series [1]: Metabolic stability in human liver microsome assessed as compound remaining after 30 mins. Format: ADME. The note with it: liver microsomes, read-out: Stability. On the technique in general: Liver microsomes are vesicles of endoplasmic reticulum, rich in cytochrome P450 enzymes.
The nature of series [2]: Half life in rat at 5 mg/kg, po. The conditions noted are these: in vivo. Format: ADME, organism-based. Also on record: dose 5 mg/kg, route oral.
Series [3] can be described thus: Cmax in rat at 5 mg/kg, po. Format: ADME, organism-based. Also noted: dose 5 mg/kg, route oral. The note with it: in vivo.
Series [4] deals with Human immunodeficiency virus 1. The experiment in a line: Antiviral activity against VSV-G protein pseudotyped HIV1 luciferase reporter virus in mixture of human HeLa/JC53 cells assessed as luminescence after 48 hrs in presence of 40% human serum. Format: functional, organism-based. The note with it: Human immunodeficiency virus 1, Hela-JC53, 48 h. On the technique in general: A reporter such as luciferase makes a cellular process visible.

The nature of series [5]: Plasma clearance in rat at 2 mg/kg, iv. In kind it is ADME, organism-based. Also noted: dose 2 mg/kg, route intravenous.
A short description of series [6]: Volume of distribution in rat at 2 mg/kg, iv. Format: ADME, organism-based. Also on record: dose 2 mg/kg, route intravenous. The conditions noted are these: in vivo.
Series [7] is described as follows: Oral bioavailability in rat at 5 mg/kg. The conditions noted are these: in vivo. In kind it is ADME, organism-based.
A short description of series [8]: AUC in rat at 5 mg/kg, po. Format: ADME, organism-based. Also on record: dose 5 mg/kg, route oral. The conditions noted are these: plasma.
Series [9] deals with Human immunodeficiency virus 1. In words: Antiviral activity against VSV-G protein pseudotyped HIV1 luciferase reporter virus in mixture of human HeLa/JC53 cells assessed as luminescence after 48 hrs. In kind it is functional, organism-based. The note with it: Human immunodeficiency virus 1, Hela-JC53, 48 h.
Series [10] in a line: Half life in rhesus monkey at 1 mg/kg, iv. The conditions noted are these: in vivo. Also noted: dose 1 mg/kg, route intravenous. Format: ADME, organism-based, Macaca mulatta.
The nature of series [11]: Plasma clearance in Beagle dog at 1 mg/kg, iv. Also noted: dose 1 mg/kg, route intravenous. Format: ADME, organism-based, Canis lupus familiaris.
Series [12] in a line: Half life in Beagle dog at 1 mg/kg, iv. The conditions noted are these: in vivo. Also on record: dose 1 mg/kg, route intravenous. Format: ADME, organism-based, Canis lupus familiaris.
Series [13] is described as follows: Volume of distribution in Beagle dog at 1 mg/kg, iv. In kind it is ADME, organism-based, Canis lupus familiaris. Also noted: dose 1 mg/kg, route intravenous. The conditions noted are these: in vivo.
Series [14] is described as follows: Plasma clearance in rhesus monkey at 1 mg/kg, iv. Format: ADME, organism-based, Macaca mulatta. Also on record: dose 1 mg/kg, route intravenous.
Series [15] in a line: Volume of distribution in rhesus monkey at 1 mg/kg, iv. Format: ADME, organism-based, Macaca mulatta. Also noted: dose 1 mg/kg, route intravenous. The conditions noted are these: in vivo.

One may read the half-life as how long it takes for the measured level to halve. Broadly, the Cmax is the highest concentration seen after dosing. The term EC50 denotes the concentration needed to bring the measured effect to its halfway point. What is called clearance is a measure of how efficiently the substance is removed, as volume per time. For orientation: Vd means the apparent volume that relates the amount in the body to the concentration in plasma or blood. In general, bioavailability refers to dose-corrected exposure relative to a reference, in per cent. Broadly, the AUC is concentration integrated over time. As for `COc1nc2c(cc1Cc1cccc(Cl)c1F)c(=O)c(C(=O)O)cn2[C@H](CO)C(C)(C)C`, the remaining at 0.5 h in [1] is 82%. The compound also showed a half-life in series [2] of 2.9 h. For the same compound, in [3], the concentration peaked (Cmax) at 1230 ng/mL. Besides, the EC50 in series [4] is 61 nM; in [9], 8.6 nM. In series [5], this compound had a clearance of 2.67 mL/min/kg. In series [6], this compound registered a Vd of 2.31 L/kg. The same compound yielded a bioavailability in series [7] of 31%. The compound also returned an AUC in series [8] of 8500 ng·h/mL.

Turning to `COc1nc2c(cc1Nc1ccc(F)cc1)c(=O)c(C(=O)O)cn2[C@H](CO)C(C)C`, in [9], the EC50 was over 2500 nM.

For `COc1nc2c(cc1NCc1ccc(F)cc1)c(=O)c(C(=O)O)cn2[C@H](CO)C(C)C`, in series [1], the remaining at 0.5 h was 87%. In addition, the EC50 in series [4] stood at 421 nM; in series [9], 98 nM.

Turning to `COc1nc2c(cc1Nc1ccc(Cl)c(F)c1)c(=O)c(C(=O)O)cn2[C@H](CO)C(C)C`, the EC50 in series [9] is over 2500 nM.

Consider `COc1nc2c(cc1NCc1c(F)cc(F)cc1F)c(=O)c(C(=O)O)cn2[C@H](CO)C(C)C`, for which the remaining at 0.5 h in series [1] was found to be 82%. Moreover, the EC50 in series [4] was determined as 52 nM; in [9] it was 1.4 nM.

Consider `COc1nc2c(cc1NCc1c(F)cc(F)cc1F)c(=O)c(C(=O)O)cn2[C@H](CO)C(C)(C)C`, for which the remaining at 0.5 h in [1] came out at 75%. The half-life in series [2] was 3.7 h; in [10], 2.2 h; in series [12], 2 h. The Cmax in [3] came to 666 ng/mL. Also, the EC50 in series [4] is 42 nM; in series [9] it was 7.6 nM. For the same compound, the clearance is 15.5 mL/min/kg in series [11], 5.83 mL/min/kg in series [5] and 44.2 mL/min/kg in series [14]. The figures for the Vd in series [13], in series [6] and in [15] were 1.93 L/kg, 4.18 L/kg and 3.93 L/kg, respectively. The compound also had a bioavailability in series [7] of 23%. In series [8], the AUC was determined as 2890 ng·h/mL.

Consider `CCCC[C@@H](CO)n1cc(C(=O)O)c(=O)c2cc(Cc3cccc(Cl)c3F)c(OC)nc21`, for which the EC50 in [4] turned out to be 245 nM; in series [9], 20 nM.

Turning to `CC(C)(C)[C@@H](CO)n1cc(C(=O)O)c(=O)c2cc(Cc3cccc(Cl)c3F)c(OCCO)nc21`, the remaining at 0.5 h in [1] was determined as 45%. Besides, the EC50 in [4] was 2.4 nM; in series [9] it was 0.9 nM.

As to `COc1nc2c(cc1Cc1cccc(Cl)c1F)c(=O)c(C(=O)O)cn2[C@H](CO)C(C)C`, the remaining at 0.5 h in series [1] stood at 100%. For the same compound, the EC50 in [4] turned out to be 136 nM; in series [9], 11 nM.

For the compound `COc1nc2c(cc1Nc1cccc(Cl)c1F)c(=O)c(C(=O)O)cn2[C@H](CO)C(C)C`, in [9], the EC50 is over 2500 nM.

Turning to `COc1nc2c(cc1NCc1ccc(F)cc1F)c(=O)c(C(=O)O)cn2[C@H](CO)C(C)C`, in series [1], the remaining at 0.5 h was found to be 87%. Besides, the EC50 in series [4] is 139 nM; in series [9] it was 4.6 nM.

Turning to `CC(C)Oc1nc2c(cc1Cc1cccc(Cl)c1F)c(=O)c(C(=O)O)cn2[C@H](CO)C(C)(C)C`, the EC50 in series [4] was 195 nM; in series [9], 16 nM.

`COc1nc(Cc2cccc(Cl)c2F)cc2c(=O)c(C(=O)O)cn([C@H](CO)C(C)C)c12`: the EC50 in [4] is 1770 nM; in [9], 291 nM.

For the compound `COc1nc2c(cc1Cc1cccc(Cl)c1F)c(=O)c(C(=O)O)cn2[C@H](CO)CC(C)C`, in series [1], the remaining at 0.5 h was 92%. Also, the EC50 in [4] stood at 129 nM; in [9] it was 5.9 nM.

As to `CC(C)(C)[C@@H](CO)n1cc(C(=O)O)c(=O)c2cc(Cc3cccc(Cl)c3F)c(N3CCOCC3)nc21`, in series [1], the remaining at 0.5 h was determined as 97%. For the same compound, the half-life in series [2] was 2.6 h; in series [10], 8.1 h; in [12] it was 2.6 h. This compound showed a Cmax in [3] of 414 ng/mL. Besides, the results for the EC50 in series [4] and in series [9] were 39 nM and 9.9 nM, respectively. Further, the values for the clearance in series [11], in series [5] and in series [14] were 10 mL/min/kg, 7 mL/min/kg and 19.7 mL/min/kg, respectively. In addition, the values for the Vd in [13], in [6] and in series [15] were 1.03 L/kg, 4.02 L/kg and 3.06 L/kg, respectively. Besides, the bioavailability in [7] is 26%. The AUC in [8] amounted to 2700 ng·h/mL.

For `COc1nc2c(cc1NCc1ccccc1F)c(=O)c(C(=O)O)cn2[C@H](CO)C(C)C`, in series [1], the remaining at 0.5 h was found to be 97%. For the same compound, the EC50 in series [4] worked out at 283 nM; in series [9] it was 81 nM.

Consider `CCC[C@@H](CO)n1cc(C(=O)O)c(=O)c2cc(Cc3cccc(Cl)c3F)c(OC)nc21`, for which the EC50 in series [4] was found to be 1020 nM; in series [9], 180 nM.

For `COc1nc2c(cc1NCc1cccc(F)c1)c(=O)c(C(=O)O)cn2[C@H](CO)C(C)C`, the figures for the EC50 in [4] and in [9] were 1590 nM and 1460 nM, respectively.

In the case of `CC(C)[C@@H](CO)n1cc(C(=O)O)c(=O)c2cc(Cc3cccc(Cl)c3F)cnc21`, the remaining at 0.5 h in series [1] turned out to be 99%. Moreover, the EC50 in [4] worked out at 1940 nM; in [9], 65 nM.

`COc1nc2c(cc1NCc1ccc(F)cc1)c(=O)c(C(=O)O)cn2[C@H](CO)C(C)(C)C`: the EC50 in series [4] worked out at 385 nM; in series [9] it was 150 nM.

For `CC(C)[C@@H](CO)n1cc(C(=O)O)c(=O)c2nc(Cc3cccc(Cl)c3F)ccc21`, in [9], the EC50 is over 2500 nM.

For `CC[C@@H](CO)n1cc(C(=O)O)c(=O)c2cc(Cc3cccc(Cl)c3F)c(OC)nc21`, the EC50 in series [4] was found to be 307 nM; in series [9], 40 nM.

For the compound `COc1cc2c(cc1Cc1cccc(Cl)c1F)c(=O)c(C(=O)O)cn2[C@H](CO)C(C)C` [ELVITEGRAVIR], the remaining at 0.5 h in [1] is 38%. In addition, the half-life in series [2] was 2.9 h; in [10], 3.2 h; in series [12] it was 3.6 h. Besides, the Cmax in series [3] came out at 1140 ng/mL. Moreover, the EC50 in series [4] came to 36 nM; in series [9] it was 0.7 nM. For the same compound, the clearance was 10 mL/min/kg in series [11], 3.83 mL/min/kg in series [5] and 7.17 mL/min/kg in [14]. The Vd in series [13] amounted to 2.38 L/kg; in series [6], 2.74 L/kg; in [15], 1.99 L/kg. Moreover, the bioavailability in [7] was 26%. The AUC in series [8] was found to be 5630 ng·h/mL.

On to `COc1nc2c(cc1NCc1cccc(Cl)c1F)c(=O)c(C(=O)O)cn2[C@H](CO)C(C)C`, for which the EC50 was determined as 2680 nM in series [4] and 490 nM in [9].

As for `CC(C)(C)[C@@H](CO)n1cc(C(=O)O)c(=O)c2cc(Cc3cccc(Cl)c3F)c(O)nc21`, the remaining at 0.5 h in series [1] worked out at 87%. For the same compound, the EC50 in [4] was 199 nM; in series [9], 2.7 nM.

On to `COc1nc2c(cc1Cc1cccc(Cl)c1F)c(=O)c(C(=O)O)cn2[C@@H](C)CO`, for which the EC50 turned out to be 1050 nM in [4] and 177 nM in series [9].

As for `CCOc1nc2c(cc1Cc1cccc(Cl)c1F)c(=O)c(C(=O)O)cn2[C@H](CO)C(C)(C)C`, the remaining at 0.5 h in [1] was found to be 84%. Besides, the EC50 amounted to 19 nM in [4] and 1.4 nM in series [9].

Turning to `CC(C)[C@@H](CO)n1cc(C(=O)O)c(=O)c2cc(Cc3cccc(Cl)c3F)ncc21`, in [1], the remaining at 0.5 h was 100%. For the same compound, the EC50 in series [4] was 425 nM; in [9] it was 54 nM.
